Experimental data from patent US8906908B2, “Hydroxybupropion analogues for treating drug dependence” (priority 2010, dated 2014).
Like-named read-outs stand apart in the source and are kept apart here.

What was measured:
[1] = molecular target: T1, muscle-type nAChR (α1β1γδ- or α1*-nAChR) (Homo sapiens, UniProt P02708+P07510+P11230+Q07001); test: 86Rb+ efflux nAChR functional assay, TE671/RD cells; assay type: cell-based; conditions: parentheses = S.E.M. as multiplication/division factor
T1 construct: Cells of the TE671/RD line naturally expresses muscle-type nAChR; endogenous in cells; host or cells: TE671/RD cells
Description: (§1) Cell Lines and Culture: Human embryonic kidney (HEK-293) cells stably expressing human DAT, NET or SERT were maintained as previously described in Eshleman, A. J.; Carmolli, M.; Cumbay, M.; Martens, C. R.; Neve, K. A.; Janowsky, A., J. Pharmacol. Exp. Ther. 1999, 289, (2), 877-885. Use was made of several human cell lines that naturally or heterologously express specific, functional, human nAChR subtypes. Cells of the TE671/RD line naturally expresses muscle-type nAChR (a1β1γδ- or α1*-nAChR), and SH-SY5Y neuroblastoma cells naturally expresses autonomic α3β4*-nAChRs (containing α3, β4, probably α5, and sometimes β2 subunits). Different clones of SH-EP1 epithelial cell lines have been engineered to heterologously express either α4β2-nAChR, which are thought to be the most abundant, high affinity nicotine-binding nAChR in mammalian brain, or α4β4-nAChR, another possible brain nAChR subtype (SH-EP1-hα4β2 or α4β4 cells, respectively). These cells were maintained as low passage number (1-26 from our frozen stocks) cultures to ensure stable expression of native or heterologously-expressed nAChR as previously described (see Lukas, R. J.; Fryer, J. D.; Eaton, J. B.; L., G. C., Some methods for studies of nicotinic acetylcholine receptor pharmacology, in Nicotinic receptors and the Nervous System, Levine, E. D., Ed. CRC Press: Boca Raton, 2002; pp 3-27, incorporated herein by reference in its entirety). Cells were passaged once weekly by splitting just-confluent cultures 1/300 (TE671/RD), 1/5 (SH-SY5Y), or 1/20 (transfected SH-EP1) in serum-supplemented medium to maintain log-phase growth.
After cells had adhered (generally overnight, but no sooner than 4 h later), the medium was removed and replaced with 250 μL per well of complete medium supplemented with ˜350,000 cpm of ^86Rb^+ (PerkinElmer Life and Analytical Sciences, Boston, Mass.) and counted at 40% efficiency using Cerenkov counting (TriCarb 1900 liquid scintillation analyzer[…]; PerkinElmer Life Sciences).
After at least 4 h and typically overnight, ^86Rb^+ efflux was measured using the “flip-plate” technique. See Lukas, R. J.; Fryer, J. D.; Eaton, J. B.; L., G. C., Some methods for studies of nicotinic acetylcholine receptor pharmacology, in Nicotinic receptors and the Nervous System, Levine, E. D., Ed. CRC Press: Boca Raton, 2002; pp 3-27, incorporated herein by reference in its entirety). Briefly, after aspiration of the bulk of ^86Rb^+ loading medium from each well of the “cell plate,” each well containing cells was rinsed 3× with 2 mL of fresh ^86Rb^+ efflux buffer (130 mM NaCl, 5.4 mM KCl, 2 mM CaCl2, 5 mM glucose, 50 mM HEPES, pH 7.4) to remove extracellular ^86Rb^+. Following removal of residual rinse buffer by aspiration, the flip-plate technique was used again to simultaneously introduce 1.5 mL of fresh efflux buffer containing drugs of choice at indicated final concentrations from a 24-well “efflux/drug plate” into the wells of the cell plate. After a 5 min incubation, the solution was “flipped” back into the efflux/drug plate, and any remaining buffer in the cell plate was removed by aspiration. Cells remaining in the cell plate were lysed and suspended by addition of 1.5 mL of 0.1 M NaOH, 0.1% sodium dodecyl sulfate to each well.
Similarly, the sum of ^86Rb^+ in cell plates and efflux/drug plates also determined the efficiency of ^86Rb^+ loading (the percentage of applied ^86Rb^+ actually loaded into cells).
Specific efflux was then taken as the difference in control samples between total and non-specific ^86Rb^+ efflux. Any intrinsic agonist activity of test drugs was ascertained using samples containing test drug only at different concentrations and was normalized, after subtraction of non-specific efflux, to specific efflux in test drug-free, control samples.

[2] = system: Male Institute of Cancer Research (ICR) mice; test: Hot-plate test, blockade of nicotine-induced antinociception; assay type: in vivo; conditions: pretreatment 15 min before nicotine 2.5 mg/kg s.c., tested 5 min after nicotine; for ED50: Mus musculus, read-out: AD50 Hot-plate
Description: (§2) Animals: Male Institute of Cancer Research (ICR) mice (weighing 20-25 g) obtained from Harlan (Indianapolis, Ind.) were used throughout the study. Animals were housed in an Association for Assessment and Accreditation of Laboratory Animal Care-approved facility, were placed in groups of six, and had free access to food and water. Studies were approved by the Institutional Animal Care and Use Committee of Virginia Commonwealth University.
Hot-Plate Test: Mice were placed into a 10-cm wide glass cylinder on a hot plate (Thermojust Apparatus) maintained at 55° C. for assessment of pain responses mediated at supraspinal levels. To minimize tissue damage, a maximum exposure to the hot plate 40 s was imposed. Measures of control latencies (time until the animal jumped or licked its paws; typically 8-12 s) were done twice for stimuli applied at least 10 min apart for each mouse. Antinociceptive responses after test drug administrations were determined and calculated as the % MPE, where % MPE=[(test latency in s−control latency in s)/(40 s−control latency in s)×100]. Groups of 8 to 12 animals were used for each drug condition. […] The animals were then tested 5 min after administration of a subcutaneous dose of 2.5 mg/kg nicotine.

NE transporters [h(NET)] = molecular target: T2, NE transporters [h(NET)] (Homo sapiens, UniProt P23975); test: Inhibition of [3H]norepinephrine uptake into HEK293 cells stably expressing hNET; assay type: cell-based; conditions: for selectivity for inhibition of NE over DA uptake: ratio of uptake IC50 values
T2 construct: expressed in transfected cells; host or cells: HEK-293
Description: as §1
See, for example, Damaj, M. I.; Carroll, F. I.; Eaton, J. B.; Navarro, H. A.; Blough, B. E.; Mirza, S.; Lukas, R. J.; Martin, B. R., Mol. Pharmacol. 2004, 66, (3), 675-682 and Eshleman, A. J.; Carmolli, M.; Cumbay, M.; Martens, C. R.; Neve, K. A.; Janowsky, A., J. Pharmacol. Exp. Ther. 1999, 289, (2), 877-885, both incorporated by reference herein in their entireties.

[3] = system: Male Institute of Cancer Research (ICR) mice; test: Tail-flick test, blockade of nicotine-induced antinociception; assay type: in vivo; conditions: for AD50 Tail-flick / ED50: mice, pretreatment 15 min before nicotine 2.5 mg/kg s.c., tested 5 min after nicotine; for ED50: Mus musculus, 5 min, read-out: AD50 Tail-flick; for activity in the tail-flick assay relative to (2S,3S)-4a: higher activity than (2S,3S)-4a
Description: as §2
Tail-Flick Test: Antinociception for pain mediated at the spinal level was assessed by the tail-flick method of D'Amour, F. E.; Smith, D. L., J. Pharmacol. Exp. Ther. 1941, 72, 74-79, incorporated herein by reference in its entirety. In brief, mice were lightly restrained while a radiant heat source was shone onto the upper portion of the tail. To minimize tissue damage, a maximum latency of 10 s was imposed. Latency to remove the tail from the heat source was recorded for each animal. […] Antinociceptive response was calculated as the percentage of maximum possible effect (% MPE), where % MPE=[(test control)/(10 control)]×100.

[4] = nAChR inhibition IC50 α1*β1, EC80-EC90 carbamylcholine
[5] = HEK293-hNET, mean ± standard error of three independent experiments, read-out: monoamine uptake inhibition IC50 [3H]NE
[6] = EC80-EC90 carbamylcholine, read-out: nAChR inhibition IC50 α1*β1

T2 sequence (P23975 whole entry): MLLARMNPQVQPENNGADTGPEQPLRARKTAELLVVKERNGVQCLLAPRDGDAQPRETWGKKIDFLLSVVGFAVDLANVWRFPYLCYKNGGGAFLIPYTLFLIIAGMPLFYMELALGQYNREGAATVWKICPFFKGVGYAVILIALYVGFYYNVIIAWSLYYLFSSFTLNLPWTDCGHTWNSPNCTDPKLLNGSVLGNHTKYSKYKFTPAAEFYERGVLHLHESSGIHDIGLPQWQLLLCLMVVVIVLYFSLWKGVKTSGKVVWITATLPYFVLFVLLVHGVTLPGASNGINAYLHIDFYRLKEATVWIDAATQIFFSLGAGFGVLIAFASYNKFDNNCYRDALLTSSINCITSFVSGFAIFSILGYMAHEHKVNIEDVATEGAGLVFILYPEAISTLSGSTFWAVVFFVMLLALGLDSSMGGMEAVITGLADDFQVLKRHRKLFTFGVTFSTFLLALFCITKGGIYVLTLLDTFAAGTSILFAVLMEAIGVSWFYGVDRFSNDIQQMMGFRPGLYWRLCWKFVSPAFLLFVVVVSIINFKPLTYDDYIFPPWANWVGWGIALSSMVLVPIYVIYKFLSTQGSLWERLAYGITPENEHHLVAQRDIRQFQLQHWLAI
T1 sequence (P02708 21-457): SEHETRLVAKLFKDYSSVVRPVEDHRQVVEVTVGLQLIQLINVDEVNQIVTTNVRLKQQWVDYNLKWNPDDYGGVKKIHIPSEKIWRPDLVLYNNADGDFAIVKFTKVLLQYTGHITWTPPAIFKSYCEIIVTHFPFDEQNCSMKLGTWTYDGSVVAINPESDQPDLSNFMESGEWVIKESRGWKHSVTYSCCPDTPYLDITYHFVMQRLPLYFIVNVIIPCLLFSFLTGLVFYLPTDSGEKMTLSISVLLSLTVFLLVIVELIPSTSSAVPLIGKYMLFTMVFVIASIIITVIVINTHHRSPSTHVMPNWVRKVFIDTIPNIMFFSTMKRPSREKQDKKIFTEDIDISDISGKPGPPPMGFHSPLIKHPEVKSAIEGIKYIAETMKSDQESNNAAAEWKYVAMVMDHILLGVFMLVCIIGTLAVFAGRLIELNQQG
T1 sequence (P11230 24-501): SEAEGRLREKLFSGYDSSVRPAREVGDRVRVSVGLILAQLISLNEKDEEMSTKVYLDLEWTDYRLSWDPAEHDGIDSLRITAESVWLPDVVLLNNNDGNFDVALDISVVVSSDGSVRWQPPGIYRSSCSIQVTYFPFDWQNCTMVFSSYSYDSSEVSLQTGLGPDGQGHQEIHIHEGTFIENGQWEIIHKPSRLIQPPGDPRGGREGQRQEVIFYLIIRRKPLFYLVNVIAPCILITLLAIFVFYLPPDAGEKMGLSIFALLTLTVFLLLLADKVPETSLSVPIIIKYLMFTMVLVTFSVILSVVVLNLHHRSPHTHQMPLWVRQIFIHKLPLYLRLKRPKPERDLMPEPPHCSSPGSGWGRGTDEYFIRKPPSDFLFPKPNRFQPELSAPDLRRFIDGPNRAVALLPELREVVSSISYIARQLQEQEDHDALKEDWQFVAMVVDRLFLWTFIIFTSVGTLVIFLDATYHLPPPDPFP
T1 sequence (P07510 23-517): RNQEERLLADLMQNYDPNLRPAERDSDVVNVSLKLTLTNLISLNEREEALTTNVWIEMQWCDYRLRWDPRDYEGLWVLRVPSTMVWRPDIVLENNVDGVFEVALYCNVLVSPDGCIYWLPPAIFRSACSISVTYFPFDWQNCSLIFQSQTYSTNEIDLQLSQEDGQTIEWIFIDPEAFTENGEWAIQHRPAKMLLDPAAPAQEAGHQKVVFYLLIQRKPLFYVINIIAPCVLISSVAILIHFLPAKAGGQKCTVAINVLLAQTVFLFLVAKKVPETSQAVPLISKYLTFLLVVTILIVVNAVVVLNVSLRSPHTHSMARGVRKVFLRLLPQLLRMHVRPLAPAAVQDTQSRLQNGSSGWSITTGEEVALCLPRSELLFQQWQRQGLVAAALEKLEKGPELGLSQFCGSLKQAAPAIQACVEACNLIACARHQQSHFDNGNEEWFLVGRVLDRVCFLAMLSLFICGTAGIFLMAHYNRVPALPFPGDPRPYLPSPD
T1 sequence (Q07001 22-517): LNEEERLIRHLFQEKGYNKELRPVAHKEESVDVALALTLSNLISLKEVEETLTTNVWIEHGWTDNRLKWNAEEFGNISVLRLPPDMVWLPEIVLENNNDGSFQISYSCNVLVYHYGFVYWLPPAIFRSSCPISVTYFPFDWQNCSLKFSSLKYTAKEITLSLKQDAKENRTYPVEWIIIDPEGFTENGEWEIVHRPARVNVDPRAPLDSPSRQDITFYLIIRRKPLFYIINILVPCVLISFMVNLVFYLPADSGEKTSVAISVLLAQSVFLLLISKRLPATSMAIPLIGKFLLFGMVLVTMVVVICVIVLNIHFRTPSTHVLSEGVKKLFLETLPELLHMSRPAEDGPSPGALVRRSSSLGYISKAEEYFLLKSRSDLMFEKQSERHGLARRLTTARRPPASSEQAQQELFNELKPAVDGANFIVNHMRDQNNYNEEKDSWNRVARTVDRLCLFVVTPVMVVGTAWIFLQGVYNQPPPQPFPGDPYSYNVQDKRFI

| Compound | IC50 [1, 4] [µM] | AD50 Hot-plate [2] | selectivity for inhibition of NE uptake over α3β4*-nAChR function (NE transporters [h(NET)]) [fold] | IC50 (NE transporters [h(NET)]; [5]) [µM] | AD50 Tail-flick [3] | IC50 [1, 6] [µM] | ED50 [3] [mg/kg] | ED50 [2] [mg/kg] | selectivity for inhibition of NE over DA uptake (NE transporters [h(NET)]) [fold] | activity in the tail-flick assay relative to (2S,3S)-4a [3] [fold] | IC50 (NE transporters [h(NET)]) [µM] | selectivity for inhibition of NE uptake over α4β2-nAChR function (NE transporters [h(NET)]) [fold] |
| --- | --- | --- | --- | --- | --- | --- | --- | --- | --- | --- | --- | --- |
| CC1NC(C)(C)COC1(O)c1cc(Cl)cc(Cl)c1 (racemic) [Compound 4p, 2-(3,5-Dichlorophenyl)-3,5,5-trimethylmorpholin-2-ol] | 7.2 | IA (IA: AD50 > 15 mg/kg) | 1.6 | 2.44 ± 0.73 | IA (IA: AD50 > 15 mg/kg) | – | – | – | – | – | – | – |
| C[C@@H]1NC(C)(C)CO[C@@]1(O)c1ccc(F)c(F)c1 [Compound 4m, (2S,3S)-2-(3,4-Difluorophenyl)-3,5,5-trimethylmorpholin-2-ol] | – | IA (IA: AD50 > 15 mg/kg) | – | 0.74 ± 0.11 | – | 36 | 0.006 | – | – | – | – | – |
| C[C@@H]1NC(C)(C)CO[C@@]1(O)c1cccc(Br)c1 [Compound 4d, (2S,3S)-2-(3-Bromophenyl)-3,5,5-trimethylmorpholin-2-ol] | 5.9 to 19 | – | – | 0.92 ± 0.3 | – | 18 | 0.16 | 3.7 to 8.6 | ~3.6 | – | – | – |
| C[C@@H]1NC(C)(C)CO[C@@]1(O)c1cccc2ccccc12 [Compound 4q, (2S,3S)-2-(Naphthalen-1-yl)-3,5,5-trimethylmorpholin-2-ol] | – | IA (IA: AD50 > 15 mg/kg) | – | 0.411 ± 0.053 | – | 6.6 | 0.034 | – | 24 | ~5 | – | – |
| C[C@@H]1NC(C)(C)CO[C@@]1(O)c1cccc(F)c1 [Compound 4c, (2S,3S)-2-(3-Fluorophenyl)-3,5,5-trimethylmorpholin-2-ol] | > 100 | – | – | 0.74 ± 0.15 | – | – | 0.012 to 0.013 | – | – | – | – | – |
| C[C@@H]1NC(C)(C)CO[C@@]1(O)c1cccc([N+](=O)[O-])c1 [Compound 4g, (2S,3S)-2-(3-Nitrophenyl)-3,5,5-trimethylmorpholin-2-ol] | – | IA (IA: AD50 > 15 mg/kg) | – | 1.21 ± 0.34 | – | 96 | 4.9 | – | 10 | – | – | – |
| CC1NC(C)(C)COC1(O)c1ccc(Cl)c(Cl)c1 (racemic) [Compound 4n, 2-(3,4-Dichlorophenyl)-3,5,5-trimethylmorpholin-2-ol] | 7.2 | IA (IA: AD50 > 15 mg/kg) | ~23 | – | – | – | 8.8 | – | – | – | 0.114 | – |
| CC[C@@H]1NC(C)(C)CO[C@@]1(O)c1cccc(Cl)c1 [Compound 4s, (2S,3S)-2-(3-Chlorophenyl)-3-ethyl-5,5-dimethylmorpholin-2-ol] | – | – | – | 0.043 | – | 14 | 0.004 | 3.7 to 8.6 | 5 | – | – | – |
| C[C@@H]1NC(C)(C)CO[C@@]1(O)c1ccc(F)cc1 [Compound 4h, (2S,3S)-2-(4-Fluorophenyl)-3,5,5-trimethylmorpholin-2-ol] | – | IA (IA: AD50 > 15 mg/kg) | – | 3.8 ± 0.6 | – | 69 | 0.012 to 0.013 | – | – | – | – | – |
| C[C@@H]1NC(C)(C)CO[C@@]1(O)c1ccc2ccccc2c1 [Compound 4r, (2S,3S)-2-(Naphthalen-2-yl)-3,5,5-trimethylmorpholin-2-ol] | – | IA (IA: AD50 > 15 mg/kg) | 1.3 | 1.57 ± 0.43 | – | 11 | 0.04 | – | – | ~5 | – | ~4 |
| C[C@@H]1N(C)C(C)(C)CO[C@@]1(O)c1cccc(Cl)c1 [Compound 4u, (2S,3S)-2-(3-Chlorophenyl)-3,4,5,5-tetramethylmorpholin-2-ol] | > 33 | IA (IA: AD50 > 15 mg/kg) | – | 0.415 ± 0.009 | – | 57 | 0.016 | – | – | – | – | – |
| Cc1ccc([C@]2(O)OCC(C)(C)N[C@H]2C)cc1 [Compound 4j, (2S,3S)-3,5,5-Trimethyl-2-(4-methylphenyl)morpholin-2-ol] | – | IA (IA: AD50 > 15 mg/kg) | – | 1.68 ± 0.33 | – | 20 | 0.004 | – | – | – | – | – |
| C[C@@H]1NC(C)(C)CO[C@@]1(O)c1ccccc1 [Compound 4b, (2S,3S)-2-Phenyl-3,5,5-trimethylmorpholin-2-ol] | > 100 | IA (IA: AD50 > 15 mg/kg) | – | 0.55 ± 0.09 | IA (IA: AD50 > 15 mg/kg) | – | – | – | – | – | – | – |
| Cc1cccc([C@]2(O)OCC(C)(C)N[C@H]2C)c1 [Compound 4e, (2S,3S)-2-(m-Tolyl)-3,5,5-trimethylmorpholin-2-ol] | > 33 | – | – | 1.13 ± 0.02 | – | 33 | 0.054 | – | – | – | – | – |
| COc1cccc([C@]2(O)OCC(C)(C)N[C@H]2C)c1 [Compound 4f, (2S,3S)-2-(3-Methoxyphenyl)-3,5,5-trimethylmorpholin-2-ol] | – | IA (IA: AD50 > 15 mg/kg) | – | 3 ± 0.9 | – | 49 | 5.85 | – | 5 | – | – | – |
